The experiment concerns the target T1, Monocarboxylate transporter 1 (Rattus norvegicus) (UniProt P53987).
T1 sequence (whole entry): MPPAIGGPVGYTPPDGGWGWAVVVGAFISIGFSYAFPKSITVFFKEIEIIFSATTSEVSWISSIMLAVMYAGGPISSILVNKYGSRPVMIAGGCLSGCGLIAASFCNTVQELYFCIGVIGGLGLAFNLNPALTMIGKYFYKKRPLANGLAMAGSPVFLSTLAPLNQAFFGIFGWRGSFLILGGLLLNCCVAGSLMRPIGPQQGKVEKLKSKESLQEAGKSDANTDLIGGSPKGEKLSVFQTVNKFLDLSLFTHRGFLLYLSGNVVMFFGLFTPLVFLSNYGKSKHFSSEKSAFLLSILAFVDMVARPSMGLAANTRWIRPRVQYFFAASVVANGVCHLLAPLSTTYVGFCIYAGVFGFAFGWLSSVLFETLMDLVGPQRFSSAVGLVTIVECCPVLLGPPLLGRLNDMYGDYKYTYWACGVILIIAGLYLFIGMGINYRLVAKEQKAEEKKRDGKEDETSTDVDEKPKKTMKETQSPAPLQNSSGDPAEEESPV
The experiment is described as follows: Inhibition of rat MCT1 expressed in human MDA-MB-231 cells in presence of [3H]-GHB by liquid scintillation spectroscopy analysis. The format is cell-based. Also noted: concentration or dose not given beside the values. To be noted: concentration not given here.
On to `O=c1c(O)c(-c2ccc(O)cc2O)oc2cc(O)cc(O)c12`, for which the inhibition worked out at 100%.
The figure for `O=c1c(O)c(-c2ccc(O)c(O)c2)oc2cc(O)cc(O)c12` is 87%; for `O=c1cc(-c2ccc(O)cc2)oc2cc(O)cc(O)c12` it is 50%; for `O=c1c(O)c(-c2ccc(O)c(O)c2)oc2cc(O)ccc12` it is 93%.
The figure for `COc1ccc(-c2cc(=O)c3c(O)cc(O)cc3o2)cc1O` is 49%; for `O=c1cc(-c2ccc(O)c(O)c2)oc2cc(O)cc(O)c12` it is 100%.

The values are drawn from ChEMBL document CHEMBL5233245, “Monocarboxylate transporter 1 and 4 inhibitors as potential therapeutics for treating solid tumours: A review with structure-activity relationship insights” (Eur J Med Chem, 2020).
